Data from patent publication US10501425B2, “Microbiocidal oxadiazole derivatives” (SYNGENTA PARTICIPATIONS AG, priority 2015, dated 2019).

What was measured:
[1] = test system: Glomerella lacenarium (Colletotrichum lagenarium); test: Glomerella lagenarium liquid culture / cucumber / preventative (anthracnose); assay type: cell-based; settings: Colletotrichum orbiculare; 20 ppm in the applied formulation; liquid culture (PDB), growth inhibition measured photometrically 3 to 4 days after application; compared to untreated; read-out: disease control
Method in brief: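 Conidia from cryogenic storage were mixed into potato dextrose broth. This was added to compound diluted from DMSO into 0.025% Tween20, tested at 20 ppm. Plates were incubated in the dark at 24 °C and 96% relative humidity, and growth was read photometrically after 2–7 days as % activity versus untreated check.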

[2] = test system: Puccinia recondita f. Sp. Tritici; test: Puccinia recondita f. sp. tritici / wheat / leaf disc preventative (brown rust); assay type: in vivo; settings: foliar, 200 ppm in the applied formulation, wheat leaf segments cv. Kanzler, preventative (inoculated 1 day after application), compared to untreated, read-out: disease control
Method in brief: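 Preventative leaf-segment test, cv. Kanzler on agar: spray compound, inoculate with spore suspension 1 d post-application, hold at 19° C./75% rh, 12 h/12 h light cycle. Read-out = % disease control vs untreated check at 7–9 d; 200 ppm in applied formulation.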

Uromyces viciae-fabae = Uromyces viciae-fabae / field bean / leaf disc preventative (faba-bean rust); assay type: in vivo; settings: foliar, 288 h, 100 ppm in the applied formulation, field bean leaf discs, compared to untreated, read-out: disease control
Procedure: Leaf disks or leaf segments of various plant species are cut from plants grown in a greenhouse. The cut leaf disks or segments are placed in multiwell plates (24-well format) onto water agar. The leaf disks are sprayed with a test solution before (preventative) or after (curative) inoculation. Compounds to be tested are prepared as DMSO solutions (max. 10 mg/ml) which are diluted to the appropriate concentration with 0.025% Tween20 just before spraying. The inoculated leaf disks or segments are incubated under defined conditions (temperature, relative humidity, light, etc.) according to the respective test system. A single evaluation of disease level is carried out 3 to 14 days after inoculation, depending on the pathosystem. Percent disease control relative to the untreated check leaf disks or segments is then calculated. Field bean leaf discs are placed on water agar in multiwell plates (96-well format) and 10 μl of the formulated test compound diluted in acetone and a spreader pipetted onto the leaf disc. Two hours after application leaf discs are inoculated by spraying a spore suspension on the lower leaf surface. The leaf discs are incubated in a climate cabinet at 22° C. with 18 hour light/day and 70% relative humidity. The activity of a compound is assessed as percent disease control compared to untreated when an appropriate level of disease damage appears in untreated check leaf disks (12 days after application). The following compounds at 100 ppm in the applied formulation give at least 80% disease control in this test when compared to untreated control leaf discs under the same conditions, which show extensive disease development.

Phakopsora pachyrhizi = Phakopsora pachyrhizi / soybean / leaf disc preventative (Asian soybean rust); assay type: in vivo; settings: foliar, 200 ppm in the applied formulation, soybean leaf disks, compared to untreated, read-out: disease control
Method in brief: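 Read-out is percent disease control relative to untreated check discs, assessed once untreated discs show adequate disease, 12 to 14 days after application. Compounds, tested at 200 ppm in the applied formulation, are sprayed onto soybean leaf discs one day before inoculation with a spore suspension.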

[3] = test system: Puccinia recondita f. Sp. Tritici; test: Puccinia recondita f. sp. tritici / wheat / leaf disc curative (brown rust); assay type: in vivo; settings: foliar, 24 h, 200 ppm in the applied formulation, wheat leaf segments cv. Kanzler, curative (applied 1 day after inoculation), compared to untreated, read-out: disease control
Method in brief: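 Read-out is percent disease control relative to untreated segments, assessed 6 to 8 days after treatment once check disease is adequate. Kanzler wheat leaf segments on agar receive fungal spores, then test compound (DMSO stock diluted in 0.025% Tween20 or water) 1 day later, under 19° C and 75% relative humidity.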

melting point	SMILES	inhibition of growth at 20 ppm [1]	pest or weed control at 200 ppm [2]	pest or weed control at 100 ppm (Uromyces viciae-fabae)	pest or weed control at 200 ppm (Phakopsora pachyrhizi)	pest or weed control at 200 ppm [3]
	CC(C)(CCl)C(=O)NCc1ccc(-c2noc(C(F)(F)F)n2)cc1 [Compound 1.13, 3-chloro-2,2-dimethyl-N-[[4-[5-(trifluoromethyl)-1,2,4-oxadiazol-3-yl]phenyl]methyl]propanamide]	≥ 80%	≥ 80%	≥ 80%	≥ 80%	≥ 80%
	C#CCCC(=O)NCc1ccc(-c2noc(C(F)(F)F)n2)cc1 [Compound 1.5, N-[[4-[5-(trifluoromethyl)-1,2,4-oxadiazol-3-yl]phenyl]methyl]pent-4-ynamide]	≥ 80%	≥ 80%	≥ 80%	≥ 80%	≥ 80%
120 to 127 °C	CC(C)(C)C(=O)NCc1ccc(-c2noc(C(F)(F)F)n2)cc1 [Compound 1.2, 2,2-dimethyl-N-[[4-[5-(trifluoromethyl)-1,2,4-oxadiazol-3-yl]phenyl]methyl]propanamide]	≥ 80%	≥ 80%	≥ 80%	≥ 80%	≥ 80%
	CCC(COC)C(=O)NCc1ccc(-c2noc(C(F)(F)F)n2)cc1 (stereo not shown) [Compound 1.19, 2-(methoxymethyl)-N-[[4-[5-(trifluoromethyl)-1,2,4-oxadiazol-3-yl]phenyl]methyl]butanamide]	≥ 80%	≥ 80%	≥ 80%	≥ 80%	≥ 80%
	COCCC(=O)NCc1ccc(-c2noc(C(F)(F)F)n2)cc1 [Compound 1.11, 3-methoxy-N-[[4-[5-(trifluoromethyl)-1,2,4-oxadiazol-3-yl]phenyl]methyl]propanamide]	≥ 80%	≥ 80%	≥ 80%	≥ 80%	
	N#CCC(=O)NCc1ccc(-c2noc(C(F)(F)F)n2)cc1 [Compound 1.22, 2-cyano-N-[[4-[5-(trifluoromethyl)-1,2,4-oxadiazol-3-yl]phenyl]methyl]acetamide]		≥ 80%	≥ 80%	≥ 80%	≥ 80%
	CCC(=O)NCc1ccc(-c2noc(C(F)(F)F)n2)cc1 [Compound 1.1, N-[[4-[5-(trifluoromethyl)-1,2,4-oxadiazol-3-yl]phenyl]methyl]propanamide]	≥ 80%	≥ 80%	≥ 80%	≥ 80%	≥ 80%
94 to 100 °C	COC(C)C(=O)NCc1ccc(-c2noc(C(F)(F)F)n2)cc1 (stereo not shown) [Compound 1.23, 2-methoxy-N-[[4-[5-(trifluoromethyl)-1,2,4-oxadiazol-3-yl]phenyl]methyl]propanamide]	≥ 80%	≥ 80%	≥ 80%	≥ 80%	≥ 80%
55 to 60 °C	C#CC(C)(C)C(=O)NCc1ccc(-c2noc(C(F)(F)F)n2)cc1 [Compound 1.3, 2,2-dimethyl-N-[[4-[5-(trifluoromethyl)-1,2,4-oxadiazol-3-yl]phenyl]methyl]but-3-ynamide]	≥ 80%	≥ 80%	≥ 80%	≥ 80%	≥ 80%
